Data from patent US11701372B2, “Inhalation formulations of 1'-cyano substituted carba-nucleoside analogs” (priority 2020, dated 2023).
Where two headings read alike, the source gives them in different places.

Tests used:
SARS-CoV2-Nano viruses = assay: SARS-CoV-2 antiviral screening (A549-hACE2 cells, Nano luciferase); assay type: cell-based; conditions: Severe acute respiratory syndrome coronavirus 2, 48 h
in vivo [1] = conditions: both, monkey, inhaled or intranasal
Protocol: The average deposited dose was calculated at 0.168 mg/kg and 0.536 mg/kg, respectively. Plasma, peripheral blood mononuclear cells (PBMCs), trachea, bronchi, lung lobe, liver, kidney, nasal mucosa and nasopharyngeal mucosa samples were collected in this study.

[2] = In use testing of reconstituted solutions in IV bags and IV tubings; assay type: physicochemical
Source text: The IV bags and IV tubings were sampled over time and tested for % assay/degradation.

in vivo [3] = assay: in vivo; parameters: species or system African Green Monkeys; conditions: monkey, iv, 10 mg/kg
[4] = assay type: physicochemical; conditions: for % assay/degs / Total degs / pH: T = 0
Protocol: For each condition, samples were staged at ambient and refrigerated conditions. Samples were analyzed for % assay/degs, appearance, reconstitution time, pH, and compared to T=0. The structures of the key impurities/metabolites are shown below.

CCC(CC)COC(=O)[C@H](C)N[P@](=O)(OC[C@H]1O[C@@](C#N)(c2ccc3c(N)ncnn23)[C@H](O)[C@@H]1O)Oc1ccccc1 [Formula Ia, (S)-2-ethylbutyl 2-(((S)-(((2R,3S,4R,5R)-5-(4-aminopyrrolo[2,1-f][1,2,4]triazin-7-yl)-5-cyano-3,4-dihydroxytetrahydrofuran-2-yl)methoxy)(phenoxy)phosphoryl)amino)propanoate]
EC50 (SARS-CoV2-Nano viruses): 0.11 µM
AUC(0-t) (in vivo [1]; 0.168 mg/kg): 0.023 ± 0.008 µM·h
Cmax (in vivo [1]; 0.168 mg/kg): 39 ± 14 nM
Tmax (in vivo [1]; 0.168 mg/kg): 0.52 h
AUC(0-t) (in vivo [1]; 0.536 mg/kg): 0.146 ± 0.045 µM·h
Cmax (in vivo [1]; 0.536 mg/kg): 101 ± 19 nM
Tmax (in vivo [1]; 0.536 mg/kg): 1.53 h
Total degradation ([2]; 0 h, 0.3 mg/mL): 0.2 % w/w
Total degradation ([2]; 0 h, 2 mg/mL): 0.2 % w/w
Total degradation ([2]; 4 h, 0.3 mg/mL): 0.2 % w/w
Total degradation ([2]; 4 h, 2 mg/mL): 0.2 % w/w
Total degradation ([2]; 6 h, 0.3 mg/mL): 0.2 % w/w
Total degradation ([2]; 6 h, 2 mg/mL): 0.2 % w/w
Total degradation ([2]; 8 h, 0.3 mg/mL): 0.2 % w/w
Total degradation ([2]; 8 h, 2 mg/mL): 0.2 % w/w
Total degradation ([2]; 24 h, 0.3 mg/mL): 0.2 % w/w
Total degradation ([2]; 24 h, 2 mg/mL): 0.2 % w/w
Total degradation ([2]; 48 h, 0.3 mg/mL): 0.2 % w/w
Total degradation ([2]; 48 h, 2 mg/mL): 0.2 % w/w
AUC(0-t) (in vivo [3]): 7.26 µM·h
% assay/degs, difference from T = 0 ([4]; pH 1.8, 2-8° C., 2 h): 0.0%
Total degs, difference from T = 0 ([4]; pH 1.8, 2-8° C., 2 h): 0.0%
pH, difference from T = 0 ([4]; pH 1.8, 2-8° C., 2 h): 0.0
% assay/degs, difference from T = 0 ([4]; pH 1.8, 2-8° C., 3 h): −0.2%
Total degs, difference from T = 0 ([4]; pH 1.8, 2-8° C., 3 h): 0.0%
pH, difference from T = 0 ([4]; pH 1.8, 2-8° C., 3 h): 0.0
% assay/degs, difference from T = 0 ([4]; pH 1.8, 2-8° C., 8 h): −0.2%
Total degs, difference from T = 0 ([4]; pH 1.8, 2-8° C., 8 h): 0.1%
pH, difference from T = 0 ([4]; pH 1.8, 2-8° C., 8 h): 0.0
% assay/degs, difference from T = 0 ([4]; pH 1.8, 2-8° C., 24 h): −0.5%
Total degs, difference from T = 0 ([4]; pH 1.8, 2-8° C., 24 h): 0.2%
pH, difference from T = 0 ([4]; pH 1.8, 2-8° C., 24 h): 0.0
% assay/degs, difference from T = 0 ([4]; pH 1.8, 2-8° C., 48 h): −0.2%
Total degs, difference from T = 0 ([4]; pH 1.8, 2-8° C., 48 h): 0.4%
pH, difference from T = 0 ([4]; pH 1.8, 2-8° C., 48 h): 0.0
% assay/degs, difference from T = 0 ([4]; pH 1.8, Ambient, 1 h): −0.3%
Total degs, difference from T = 0 ([4]; pH 1.8, Ambient, 1 h): 0.0%
pH, difference from T = 0 ([4]; pH 1.8, Ambient, 1 h): 0.0
% assay/degs, difference from T = 0 ([4]; pH 1.8, Ambient, 2 h): −0.1%
Total degs, difference from T = 0 ([4]; pH 1.8, Ambient, 2 h): 0.1%
pH, difference from T = 0 ([4]; pH 1.8, Ambient, 2 h): 0.0
% assay/degs, difference from T = 0 ([4]; pH 1.8, Ambient, 3 h): −0.3%
Total degs, difference from T = 0 ([4]; pH 1.8, Ambient, 3 h): 0.1%
pH, difference from T = 0 ([4]; pH 1.8, Ambient, 3 h): 0.0
% assay/degs, difference from T = 0 ([4]; pH 1.8, Ambient, 8 h): −0.4%
Total degs, difference from T = 0 ([4]; pH 1.8, Ambient, 8 h): 0.4%
pH, difference from T = 0 ([4]; pH 1.8, Ambient, 8 h): 0.0
% assay/degs, difference from T = 0 ([4]; pH 1.8, Ambient, 24 h): −1.3%
Total degs, difference from T = 0 ([4]; pH 1.8, Ambient, 24 h): 1.2%
pH, difference from T = 0 ([4]; pH 1.8, Ambient, 24 h): 0.0
% assay/degs, difference from T = 0 ([4]; pH 1.8, Ambient, 48 h): −3.5%
Total degs, difference from T = 0 ([4]; pH 1.8, Ambient, 48 h): 2.4%
pH, difference from T = 0 ([4]; pH 1.8, Ambient, 48 h): 0.0
% assay/degs ([4]; pH 1.8): 99.4%
Total degs ([4]; pH 1.8): 0.2%
pH ([4]; pH 1.8): 1.8
% assay/degs, difference from T = 0 ([4]; pH 2.0, 2-8° C., 2 h): 0.6%
Total degs, difference from T = 0 ([4]; pH 2.0, 2-8° C., 2 h): 0.0%
pH, difference from T = 0 ([4]; pH 2.0, 2-8° C., 2 h): 0.0
% assay/degs, difference from T = 0 ([4]; pH 2.0, 2-8° C., 3 h): 0.2%
Total degs, difference from T = 0 ([4]; pH 2.0, 2-8° C., 3 h): 0.0%
pH, difference from T = 0 ([4]; pH 2.0, 2-8° C., 3 h): 0.0
% assay/degs, difference from T = 0 ([4]; pH 2.0, 2-8° C., 8 h): −0.1%
Total degs, difference from T = 0 ([4]; pH 2.0, 2-8° C., 8 h): 0.1%
pH, difference from T = 0 ([4]; pH 2.0, 2-8° C., 8 h): 0.0
% assay/degs, difference from T = 0 ([4]; pH 2.0, 2-8° C., 24 h): 0.2%
Total degs, difference from T = 0 ([4]; pH 2.0, 2-8° C., 24 h): 0.1%
pH, difference from T = 0 ([4]; pH 2.0, 2-8° C., 24 h): 0.0
% assay/degs, difference from T = 0 ([4]; pH 2.0, 2-8° C., 48 h): −0.5%
Total degs, difference from T = 0 ([4]; pH 2.0, 2-8° C., 48 h): 0.3%
pH, difference from T = 0 ([4]; pH 2.0, 2-8° C., 48 h): 0.0
% assay/degs, difference from T = 0 ([4]; pH 2.0, Ambient, 1 h): 0.1%
Total degs, difference from T = 0 ([4]; pH 2.0, Ambient, 1 h): 0.0%
pH, difference from T = 0 ([4]; pH 2.0, Ambient, 1 h): 0.0
% assay/degs, difference from T = 0 ([4]; pH 2.0, Ambient, 2 h): −0.2%
Total degs, difference from T = 0 ([4]; pH 2.0, Ambient, 2 h): 0.1%
pH, difference from T = 0 ([4]; pH 2.0, Ambient, 2 h): 0.0
% assay/degs, difference from T = 0 ([4]; pH 2.0, Ambient, 3 h): 0.3%
Total degs, difference from T = 0 ([4]; pH 2.0, Ambient, 3 h): 0.1%
pH, difference from T = 0 ([4]; pH 2.0, Ambient, 3 h): 0.0
% assay/degs, difference from T = 0 ([4]; pH 2.0, Ambient, 8 h): −0.2%
Total degs, difference from T = 0 ([4]; pH 2.0, Ambient, 8 h): 0.2%
pH, difference from T = 0 ([4]; pH 2.0, Ambient, 8 h): 0.0
% assay/degs, difference from T = 0 ([4]; pH 2.0, Ambient, 24 h): −0.6%
Total degs, difference from T = 0 ([4]; pH 2.0, Ambient, 24 h): 0.8%
pH, difference from T = 0 ([4]; pH 2.0, Ambient, 24 h): 0.0
% assay/degs, difference from T = 0 ([4]; pH 2.0, Ambient, 48 h): −1.8%
Total degs, difference from T = 0 ([4]; pH 2.0, Ambient, 48 h): 1.6%
pH, difference from T = 0 ([4]; pH 2.0, Ambient, 48 h): 0.0
% assay/degs ([4]; pH 2.0): 99.2%
Total degs ([4]; pH 2.0): 0.2%
pH ([4]; pH 2.0): 2.0
% assay/degs, difference from T = 0 ([4]; pH 3.5, 2-8° C., 2 h): 0.6%
Total degs, difference from T = 0 ([4]; pH 3.5, 2-8° C., 2 h): 0.0%
pH, difference from T = 0 ([4]; pH 3.5, 2-8° C., 2 h): 0.0
